From patent publication US11360010B1, “Methods and device for controlled cell stretch and imaging” (The Regents of the University of Colorado, a body, priority 2019, dated 2022)
“Also recorded” adds a separate entry of the source.

Experiments:
Format in all cases: cell-based
[1] = test system: mouse embryonic skin fibroblasts (MSFs); assay: Live imaging of nuclear area and chromatin condensation (H2b-eGFP) during cyclic stretch routines; details: BAPTA 50 μM, KN-62 10 μM, cytochalasin D 2 μM
Protocol: (§1) Transgenic mice harboring a fluorescence tag at the H2b histone—B6.Cg-Tg (HIST1H2BB/EGFP) 1 Pa/J, Stock No: 006069—were obtained from Jackson Laboratory (Bar Harbor, Me.). All animal procedures were performed following Institutional Animal Care & Use Committee approval. Skin from embryonic mice was harvested 18.5 days post-conception. Skin was minced, washed with Hank's Balanced Salt Solution (HBSS), and incubated in 35 mm dishes in shallow medium (˜0.5 mL) to avoid floating of the tissue for 4 days, during which fibroblasts extruded from the tissue. After 4 days, remaining tissue was removed (picked out with a pipette), and extruded cells in the dish were detached using TrypLE (Gibco, Gaithersburg, Md.) and expanded in culture for another 2 days before being seeded into stretch chambers for experiments. The inner well of assembled stretch chambers was ozone activated for 30 s via corona arc discharge (BD-20; Electro-Technic Products) and coated with 50 μg/mL bovine plasma fibronectin (F1141; Sigma-Aldrich) in a total volume of 250 μL overnight at 37° C. Mouse embryonic skin fibroblasts (MSFs) were seeded into stretch chambers at a density of 80,000 cells/cm′ 1 day before experiments. MSFs were extruded and cultured in DMEM (ATCC, Manassas, Va.) containing 10% fetal bovine serum (Gibco), 1% penicillin-streptomycin (Gibco), and 25 mM HEPES (Gibco) at 37° C. and 5% CO2. To inhibit calcium signaling, MSFs were incubated with 50 μM BAPTA (A4926; Sigma-Aldrich) or 10 μM KN-62 (12142; Sigma-Aldrich) 1 h before cyclic strain experiments. To disrupt actin polymerization, MSFs were incubated with 2 μM cytochalasin D (C8273; Sigma-Aldrich) 30 min before experiments. Vehicle controls were incubated with 0.001% DMSO (276855; Sigma-Aldrich) 1 h before experiments. To test the use of chromatin dyes, cells were stained with Hoechst (NucBlue Live ReadyProbes; Life Technologies) 30 min before experiments. Stretch experiments were performed at 25° C. (room temperature) under humidified conditions.
The stretch device was mounted on an inverted epi-fluorescence microscope (Ti-Eclipse; Nikon) with a 60× water immersion objective (0.26 μm/pixel) and an EMCCD camera (iXonEM+; Andor Technology). The surrounding of the microscope was humidified to prevent the water on the objective from evaporating during the 1 h experiment. Oil immersion is also possible, but water immersion provided better image quality with the silicone membranes used.
Using MATLAB, a sinusoidal control signal (1 Hz) was sent to the Arduino controller, resulting in a cyclic stretch routine of the membrane (FIG. 1C), with peak strains set to 5% (−0.1 V), 10% (−0.9 V), and 20% (−2.25 V) as determined by the calibration curve. Cells were cyclically stretched for 30 min, followed by 30 min of rest, during which 2 μm z-stacks (0.5 μm steps) of nuclei were acquired. During the rest period, cells experienced no stretch but a constant magnetic field using the offset Arduino input voltage (0.8 V) that keeps the piston suspended at 0% stretch. For acquisition, the cyclic stretch routine was paused for 1 min to allow for a steady imaging plane and fine readjustments in z-position due to water evaporation. Unstretched control cells (0%) were seeded into stretch chambers but kept stationary on the microscope without any magnetic field applied. Unstretched magnetic control cells (MAG) were placed stationary inside the coil without the piston, and a magnetic field corresponding to a 20% sinusoidal stretch routine was applied.
A custom MATLAB code was used to track nuclear outlines via H2b-eGFP and to generate H2b intensity histograms during an image series, from which changes in nuclear area, H2b skewness, and H2b kurtosis were calculated.

[2] = test system: mouse embryonic skin fibroblasts (MSFs); assay: Nuclear strain transfer from membrane to nucleus after cyclic stretch; details: after 30 min of 20% cyclic strain; relaxed vs stretched images; cytochalasin D 2 μM vs NT cells
Protocol: Transgenic mice harboring a fluorescence tag at the H2b histone—B6.Cg-Tg (HIST1H2BB/EGFP) 1 Pa/J, Stock No: 006069—were obtained from Jackson Laboratory (Bar Harbor, Me.). All animal procedures were performed following Institutional Animal Care & Use Committee approval. Skin from embryonic mice was harvested 18.5 days post-conception. Skin was minced, washed with Hank's Balanced Salt Solution (HBSS), and incubated in 35 mm dishes in shallow medium (˜0.5 mL) to avoid floating of the tissue for 4 days, during which fibroblasts extruded from the tissue. After 4 days, remaining tissue was removed (picked out with a pipette), and extruded cells in the dish were detached using TrypLE (Gibco, Gaithersburg, Md.) and expanded in culture for another 2 days before being seeded into stretch chambers for experiments. […] To test the use of chromatin dyes, cells were stained with Hoechst (NucBlue Live ReadyProbes; Life Technologies) 30 min before experiments. […]
To analyze the amount of strain transferred from the membrane to the nucleus after cyclic stretch routines, image stacks of nuclei were acquired under relaxed or stretched conditions, and bulk nuclear strain was calculated from the change in nuclear area using the same MATLAB script as above. Note that nuclear strain transfer could not be accurately analyzed before stretch routines because of the fast response in area decline.

[3] = test system: mouse embryonic skin fibroblasts (MSFs); assay: Perinuclear F-actin and γH2a.x staining after cyclic stretch routines; details: cytochalasin D 2 μM
Protocol: as §1
MSFs were fixed in 4% ice-cold paraformaldehyde (PFA) for 10 min, permeabilized with 1% Triton-X100 in phosphate-buffered saline for 15, min and blocked with 10% NGS, 1% bovine serum albumin in 0.1% PBT (0.1% Tween-20 in phosphate-buffered saline) for 60 min. Primary incubation of Phospho-Histone H2A.X Ser139 (9718S; Cell Signaling Technology, Danvers, Mass.) was performed at 4° C. overnight in 0.1% PBT containing 1% bovine serum albumin at 1:400. Secondary incubation of goat anti-rabbit IgG-AF546 (Life Technologies) was performed in primary incubation buffer for 45 min at 22° C. at a dilution of 1:500. F-actin was counterstained with phalloidin-CF405 (Biotium, Fremont, Calif.) for 30 min at a dilution of 1:30. Staining was performed in containment wells. After staining, membranes were cut out of the containment well using a circular punch and mounted cell-side up onto #1.0 glass slides with ProLong Diamond Antifade Mountant (Life Technologies). Image stacks (5 μm, 1 μm step) of multiple nuclei in a 318×318 μm area were acquired on a Nikon MR confocal microscope using a 40× oil immersion objective (0.31 μm/pixel). A custom MATLAB code was used to track nuclear outlines via H2b-eGFP and to quantify perinuclear F-actin intensities and γH2a.x foci in projected image stacks. Only the projected F-actin within the nuclear outline (apical perinuclear F-actin) was counted in this analysis. To account for variations in staining and imaging (the same imaging settings were used), fluorescence channels were histogram normalized. Perinuclear F-actin intensities were calculated as the sum of normalized phalloidin intensities within a nuclear border. DNA damage foci were determined by detecting 2D peaks in the normalized γH2a.x channel using the MATLAB script FastPeakFind (v. 1.7).

[4] = static magnetic-field-only routine (MAG), no stretch
[5] = after 30 min 5% cyclic stretch, vs NT or VH control cells, BAPTA 50 μM, KN-62 10 μM
[6] = after 30 min 5% cyclic stretch, vs NT or VH control cells, BAPTA 50 μM, KN-62 10 μM, listed as CD
[7] = after 30 min 20% cyclic stretch, vs NT or VH control cells, BAPTA 50 μM, KN-62 10 μM
[8] = after 30 min 20% cyclic stretch, vs NT or VH control cells, BAPTA 50 μM, KN-62 10 μM, listed as CD

## C=C1[C@@H](C)[C@H]2[C@H](Cc3ccccc3)NC(=O)[C@]23[C@H](OC(C)=O)/C=C/[C@@](C)(O)C(=O)[C@@H](C)C/C=C/[C@H]3[C@@H]1O [cyto D, cytochalasin D]
[1]; 30 min 5% cyclic strain, 1 Hz, vs NT/VH cells (area increases)
  change in nuclear area: abrogated the increase in nuclear area
[1]; 30 min 5% cyclic strain, 1 Hz, vs NT/VH cells (area increases), listed as CD
  change in nuclear area: inhibited changes in nuclear area
[1]; 30 min 5% cyclic strain, 1 Hz, vs NT/VH cells (condensation decreases)
  chromatin condensation (H2b histogram kurtosis and skewness): distinctly increased chromatin condensation
[1]; 30 min 5% cyclic strain, 1 Hz, vs NT/VH cells (condensation decreases), listed as CD
  chromatin condensation (H2b histogram kurtosis and skewness): inhibited changes in nuclear area and chromatin condensation
[1]; 30 min 20% cyclic strain, 1 Hz, vs NT/VH cells (area decreases)
  change in nuclear area: inhibited nuclear shrinkage
[1]; 30 min 20% cyclic strain, 1 Hz, vs NT/VH cells (area decreases), listed as CD
  change in nuclear area: inhibited changes in nuclear area
[1]; 30 min 20% cyclic strain, 1 Hz, vs NT/VH cells (condensation increases)
  chromatin condensation (H2b histogram kurtosis and skewness): inhibited nuclear shrinkage and chromatin condensation
[1]; 30 min 20% cyclic strain, 1 Hz, vs NT/VH cells (condensation increases), listed as CD
  chromatin condensation (H2b histogram kurtosis and skewness): inhibited changes in nuclear area and chromatin condensation
[1]; [4]
  change in nuclear area: showed no effect
  chromatin condensation (H2b histogram kurtosis and skewness): showed no effect
[2]
  strain transferred from membrane to nuclei (nuclear strain): higher nuclear strains; also recorded: increase
[3]; [5]
  number of γH2a.x foci per nucleus (DNA damage, double-strand breaks): distinctly increased
  perinuclear F-actin intensities: increased
[3]; [6]
  number of γH2a.x foci per nucleus (DNA damage, double-strand breaks): increased number of foci
  perinuclear F-actin intensities: altered F-actin intensities
[3]; [7]
  number of γH2a.x foci per nucleus (DNA damage, double-strand breaks): distinctly increased
  perinuclear F-actin intensities: abrogated
[3]; [8]
  number of γH2a.x foci per nucleus (DNA damage, double-strand breaks): increased number of foci
  perinuclear F-actin intensities: altered F-actin intensities
[3]; after magnetic-field-only routine (MAG)
  perinuclear F-actin intensities: showed no effect
[3]; static magnetic-field-only controls (MAG), BAPTA 50 μM, KN-62 10 μM
  number of γH2a.x foci per nucleus (DNA damage, double-strand breaks): had no effect
